# Several values for one entry are separate records, joined by “and”; a condition that tells them apart may be missing. Identical values can stand only once. Entries after “also recorded” stand apart in the source; their conditions may differ. Like-named read-outs stand apart in the source and are kept apart here.
# Key:
# [1] = system: cholinergic neurons innervating pig gastric circular muscle; test: EFS-induced acetylcholine release (total radioactivity/tritium outflow) from pig gastric circular muscle strips
# [2] = system: pig gastric circular muscle strips; test: EFS-induced submaximal cholinergic contractions of gastric circular muscle strips
# [3] = system: pig colon descendens circular muscle; test: EFS-induced submaximal cholinergic contractions of colon circular muscle strips; conditions: for effect on EFS-induced cholinergic contractions: cumulative half log unit increasing concentrations, IBMX effect range 1-30 μM; for influence on the facilitating effect of prucalopride on cholinergic neurotransmission: PDE inhibitor before prucalopride, data not shown
# Procedure: Young male pigs (10-12 weeks, 15-25 kg-breed Line 36) were obtained from […], Belgium. On the morning of the experiment, pigs were anaesthetized with an intramuscular injection of 5 ml Zoletil 100 (containing 50 mg/ml tiletamine and 50 mg/ml zolazepam; Virbac Belgium S.A., Belgium). […] The aerated (5% CO2/95% O2) Krebs-Henseleit solution in the organ baths (see example 11) systematically contained 4 μM of the noradrenergic neuron blocker guanethidine and 0.3 mM of the NO synthase inhibitor Nω-nitro-L-arginine methyl ester hydrochloride (L-NAME) to avoid noradrenergic and […] responses respectively. After 60 min of stabilization with refreshing of the Krebs-Henseleit solution every 15 min, strips were contracted with the muscarinic receptor agonist carbachol (3 μM). This procedure was repeated with a 20-min washout period in between. […] NK3, 0.3 μM SB222200) were added and incubated for 30 min before the first electrical stimulation. […] Strips were then stimulated for 1 hour (12 stimulations) with 5 min interval at supramaximal voltage (35 V) (10 s trains; 0.25 ms pulse duration; frequency of 4 Hz). […] The protocols as described in examples 12 and 13 then started. […] Changes in isometric tension were measured using MLT 050/D force transducers (ADInstruments, United Kingdom) and recorded on a PowerLab/8sp data recording system (ADInstruments, United Kingdom) with Chart v5.5.6 software. The obtained data were analysed as follows: […] Results are expressed as means±S.E.M., n referring to tissues from different animals except when otherwise indicated. Statistical analysis was performed by use of Graphpad Prism […]<0.05 was considered statistically significant. When adding PDE inhibitors cumulatively, the last contraction in the presence of each concentration was compared to the reference by repeated measures ANOVA followed by a Bonferroni corrected t-test. […] A cumulative concentration-response curve for the different PDE inhibitors was obtained by adding them in half log unit increasing concentrations, starting after 5 reproducible contractions at V50% had been obtained and registering the responses to 6 trains (30 min) after adding each concentration. Parallel to the cumulative concentration-response curve of rolipram, an isolated concentration-response curve was obtained by adding one single concentration per tissue in 3 animals. […] The solvents DMSO and ethanol were tested separately by adding them cumulatively in the matching dilutions as for the cumulative concentration series of the corresponding PDE inhibitor.
# PDE = conditions: Beavo and Reifsnyder, 1990; read-out: IC50 range; cited from earlier work
# [4] = prucalopride 0.03, 0.1 or 0.3 μM
smiles,measurement,setting,value
Cn1cc(C(=O)OCC2CCN(CCNS(C)(=O)=O)CC2)c2ccccc21 [GR113808],"S2, EFS-induced outflow of total radioactivity above baseline",[1]; 1 nM GR113808 added 21 min before 0.3 μM prucalopride,43860 ± 4122 dpm g^−1 tissue
same,S2/S1 ratio of EFS-induced total radioactivity outflow,[1]; 1 nM GR113808 followed by 0.3 μM prucalopride,1.05 ± 0.08
same,"S2, EFS-induced outflow of total radioactivity above baseline",[1]; 10 nM GR113808 added 21 min before 0.3 μM prucalopride,39273 ± 9533 dpm g^−1 tissue
same,S2/S1 ratio of EFS-induced total radioactivity outflow,[1]; 10 nM GR113808 followed by 0.3 μM prucalopride,0.86 ± 0.04
same,"S2, EFS-induced outflow of total radioactivity above baseline",[1]; 100 nM GR113808 added 21 min before 0.3 μM prucalopride,47590 ± 8293 dpm g^−1 tissue
same,S2/S1 ratio of EFS-induced total radioactivity outflow,[1]; 100 nM GR113808 followed by 0.3 μM prucalopride,0.74 ± 0.05
same,influence on basal tritium outflow,"[1]; GR113808 1, 10, 100 nM",did not influence basal tritium outflow
same,influence on the facilitating effect of prucalopride on EFS-induced acetylcholine release,"[1]; GR113808 1, 10, 100 nM versus 0.3 μM prucalopride",concentration-dependently antagonized the facilitating effect of 0.3 μM prucalopride
same,"S1, EFS-induced outflow of total radioactivity above baseline","[1]; first stimulation S1, before drugs, tissues given 1 nM GR113808 then 0.3 μM prucalopride",42314 ± 3744 dpm g^−1 tissue
same,"S1, EFS-induced outflow of total radioactivity above baseline","[1]; first stimulation S1, before drugs, tissues given 10 nM GR113808 then 0.3 μM prucalopride",45180 ± 10235 dpm g^−1 tissue
same,"S1, EFS-induced outflow of total radioactivity above baseline","[1]; first stimulation S1, before drugs, tissues given 100 nM GR113808 then 0.3 μM prucalopride",49850 ± 8210 dpm g^−1 tissue
same,influence per se on EFS-induced contractions,"[2]; GR113808 1, 10 and 100 nM",did not influence the EFS-induced contractions
same,influence on the facilitating effect of prucalopride on EFS-induced contractions,"[2]; GR113808 1, 10 and 100 nM versus 0.3 μM prucalopride",concentration-dependently inhibited the facilitating effect of 0.3 μM prucalopride
"CC(C)Cn1c(=O)n(C)c(=O)c2[nH]cnc21 [IBMX, 3-isobutyl-1-methyl-xanthine]",influence on EFS-induced tritium outflow,[1]; IBMX 10 μM alone,nor did it influence EFS-induced tritium outflow; also recorded: did not significantly influence EFS-induced tritium outflow
same,influence on basal tritium outflow,"[1]; PDE inhibitor alone, 10 μM",did not influence basal
same,EFS-induced contractions decreased maximally to % of response before,"[2]; 3 μM IBMX, piglets",84±2%
same,effect on EFS-induced cholinergic contractions,[2]; 30 μM IBMX,nearly abolished
same,effect on amplitude of the EFS-induced cholinergic contractions,"[2]; IBMX, half log unit ascending concentrations",concentration-dependent reduction of the amplitude of the EFS-induced cholinergic contractions from 3 μM onwards
same,effect on EFS-induced cholinergic contractions,[3],concentration-dependently inhibited EFS-induced cholinergic contractions
same,IC50,PDE,2 to 50 µM
COc1ccc(C2CNC(=O)C2)cc1OC1CCCC1 (centres unmarked) [rolipram],influence on basal tritium outflow,"[1]; PDE inhibitor alone, 1 μM",None of these PDE-inhibitors alone influenced basal tritium outflow
same,"mean contractile response to the 10th stimulation train, % of response before administration","[2]; 1 μM rolipram alone, before adding prucalopride, three tissue groups",114±8% and 115±8% and 122±9%
same,"individual contractile response to the 10th stimulation, % of response before administration","[2]; 1 μM rolipram alone, single tissues of the group later given 0.03 μM prucalopride",96% and 111% and 137% and 155% and 93% and 102% and 101% and 128%
same,influence on submaximal cholinergic contractions,[2]; 1-30 μM,did not significantly influence the submaximal cholinergic contractions
same,effect on EFS-induced contractions,"[3]; 3 μM rolipram, before prucalopride is added",did not enhanced the EFS-induced contractions
same,effect on EFS-induced contractions,[3]; 0.1 and 0.3 μM rolipram,significant increase of the EFS-induced contractions
O=C(Nc1c(Cl)cncc1Cl)c1ccc(OC(F)F)c(OCC2CC2)c1 [roflumilast],S2/S1 ratio of EFS-induced total radioactivity outflow,"[1]; 0.3 μM roflumilast alone, 36 min before S2",0.85±0.02
CN1[C@@H]2CC[C@H]1C[C@@H](OC(=O)C(CO)c1ccccc1)C2 (some centres unmarked) [atropine],effect on EFS-induced contractions at V50% C,[2],abolished
CCOC(=O)C1=C[C@]2(CC)CCCN3CCc4c(n1c1ccccc41)[C@@H]32 [vinpocetine],influence on basal tritium outflow,"[1]; PDE inhibitor alone, 10 μM",None of these PDE-inhibitors alone influenced basal tritium outflow
same,influence on submaximal cholinergic contractions,[2]; vinpocetine 0.01-10 μM,did not significantly influence the submaximal cholinergic contractions
same,influence on the facilitating effect of prucalopride on cholinergic neurotransmission,[3],did not influence the facilitating effect of prucalopride on cholinergic neurotransmission
CCCCCC[C@@H]([C@@H](C)O)n1cnc2c(N)ncnc21 (racemic) [EHNA],S2/S1 ratio of EFS-induced total radioactivity outflow,[1]; 10 μM EHNA alone,0.51±0.05
same,influence on basal tritium outflow,"[1]; PDE inhibitor alone, 10 μM",did not influence basal
same,influence on submaximal cholinergic contractions,[2]; 1-30 μM,did not significantly influence the submaximal cholinergic contractions
same,influence on the facilitating effect of prucalopride on cholinergic neurotransmission,[3],did not influence the facilitating effect of prucalopride on cholinergic neurotransmission
CN(C(=O)CCCOc1ccc2[nH]c(=O)ccc2c1)C1CCCCC1 [cilostamide],influence on basal tritium outflow,"[1]; PDE inhibitor alone, 1 μM",None of these PDE-inhibitors alone influenced basal tritium outflow
same,"contraction at the 10th stimulation train, % of the response before",[2]; 1 μM cilostamide alone,59±13%
same,activity at 3 µM,"[2]; Sus scrofa, 3 μM cilostamide, maximal depression, read-out: EFS-induced contraction, reduction to % of response before PDE-inhibitor",68 ± 11%
same,influence on submaximal cholinergic contractions,[2]; cilostamide 0.01-10 μM,reduced the contractions from 0.1 μM onwards
same,potency versus IBMX in inhibiting EFS-induced cholinergic contractions,[3],about 100 times
same,inhibition at 0.03 µM,"[3]; Sus scrofa, 0.03 μM cilostamide",75%
same,effect on EFS-induced cholinergic contractions,[3],concentration-dependently inhibited EFS-induced cholinergic contractions
NC1=N[C@H](O)[C@H]2[C@H]3O[C@]4(O)O[C@@H]([C@@H](O)[C@@]2(N1)[C@@H]4O)[C@]3(O)CO [tetrodotoxin],effect on EFS-induced contractions at V50% C,[2],abolished
"COCCCN1CCC(NC(=O)c2cc(Cl)c(N)c3c2OCC3)CC1 [prucalopride, 4-amino-5-chloro-2,3-di-hydro-N-[r-(3-methoxypropyl)-4-piperidinyl]-7-benzo-furan-carboxamide]","S1, EFS-induced outflow of total radioactivity above baseline",[1],68328 ± 11006 dpm g^−1 tissue and 91698 ± 24563 dpm g^−1 tissue and 61343 ± 11445 dpm g^−1 tissue and 50543 ± 3791 dpm g^−1 tissue
same,"S2, EFS-induced outflow of total radioactivity above baseline",[1]; 0.03 μM prucalopride added 15 min before S2,62398 ± 8272 dpm g^−1 tissue
same,influence on EFS-induced tritium outflow,[1]; 0.03 μM prucalopride alone,enhanced EFS-induced tritium outflow
same,"S2, EFS-induced outflow of total radioactivity above baseline",[1]; 0.1 μM prucalopride added 15 min before S2,91877 ± 21668 dpm g^−1 tissue
same,"S2, EFS-induced outflow of total radioactivity above baseline",[1]; 0.3 μM prucalopride added 15 min before S2,61498 ± 9813 dpm g^−1 tissue and 52591 ± 2950 dpm g^−1 tissue
same,influence on basal tritium outflow,"[1]; prucalopride 0.03, 0.1 and 0.3 μM",did not influence the basal outflow
same,"electrically induced contractions, % of mean of 5 contractions before",[2]; 0.01 μM prucalopride alone,162±11%
same,"electrically induced contractions, % of mean of 5 contractions before",[2]; 0.03 μM prucalopride alone,171±15%
same,"electrically induced contractions, % of mean of 5 contractions before",[2]; 0.1 μM prucalopride alone,206±10%
same,effect on amplitude of the EFS-induced contractions,[2]; [4],progressively enhanced the amplitude of the EFS-induced contractions
same,influence on basal tone of the strips,[2]; [4],did not influence the basal tone of the strips
same,effect on EFS-induced cholinergic submaximal contractions,[3]; 1 μM prucalopride,systematically enhanced EFS-induced cholinergic submaximal contractions
CC(C)n1c(=O)c(C(=O)N[C@H]2C[C@H]3CC[C@@H](C2)N3C[C@@H](O)CN(C)S(C)(=O)=O)cc2ccccc21 [velusetrag],S2/S1 ratio of EFS-induced total radioactivity outflow,[1],0.7±0.03
